Columns and labels:
ICR mice = assay: Acute toxicity test in ICR mice; assay type: in vivo; settings: ICR mice i.p.
Experimental: (§1) An acute toxicity test of DHMEQ was performed as follows: DHMEQ was dissolved in one drop of 10% DMSO saline+Tween, administered to the abdominal cavity of ICR mice, and the mortality/survival and status of the mice after 24 hours were investigated.

[1] = Acute toxicity test in ICR mice; assay type: in vivo; settings: mouse, in vivo, intraperitoneal; ICR mice, abdominal cavity, 24 hours; read-out: acute toxicity LD 50
Experimental: as §1

NF-κB [2] = biological target: T1, NF-κB (Homo sapiens, UniProt P19838+Q04206); assay: Gel shift assay of NF-κB activation by antitumor agents in KMH2 cells; assay type: cell-based; design: endogenous in cells; host or cells: HL cell lines KMH2, L428, L540, HDLM2 (A30: KMH2 treated with antitumor agents); settings: camptothecin or daunomycin with concurrent DHMEQ
Target sequence in this assay (P19838 1-433 limits assumed): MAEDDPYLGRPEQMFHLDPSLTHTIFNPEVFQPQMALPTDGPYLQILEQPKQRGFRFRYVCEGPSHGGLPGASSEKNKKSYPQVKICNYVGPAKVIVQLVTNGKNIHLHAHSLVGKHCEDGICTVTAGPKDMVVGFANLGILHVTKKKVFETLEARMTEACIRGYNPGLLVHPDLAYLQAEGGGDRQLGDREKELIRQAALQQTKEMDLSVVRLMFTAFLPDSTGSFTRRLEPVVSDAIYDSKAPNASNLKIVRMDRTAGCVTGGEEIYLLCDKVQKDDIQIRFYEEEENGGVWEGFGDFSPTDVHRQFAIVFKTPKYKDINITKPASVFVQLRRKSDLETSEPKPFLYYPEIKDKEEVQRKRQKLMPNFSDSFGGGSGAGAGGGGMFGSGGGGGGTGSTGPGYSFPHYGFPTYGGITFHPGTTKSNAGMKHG
Target sequence in this assay (Q04206 whole entry): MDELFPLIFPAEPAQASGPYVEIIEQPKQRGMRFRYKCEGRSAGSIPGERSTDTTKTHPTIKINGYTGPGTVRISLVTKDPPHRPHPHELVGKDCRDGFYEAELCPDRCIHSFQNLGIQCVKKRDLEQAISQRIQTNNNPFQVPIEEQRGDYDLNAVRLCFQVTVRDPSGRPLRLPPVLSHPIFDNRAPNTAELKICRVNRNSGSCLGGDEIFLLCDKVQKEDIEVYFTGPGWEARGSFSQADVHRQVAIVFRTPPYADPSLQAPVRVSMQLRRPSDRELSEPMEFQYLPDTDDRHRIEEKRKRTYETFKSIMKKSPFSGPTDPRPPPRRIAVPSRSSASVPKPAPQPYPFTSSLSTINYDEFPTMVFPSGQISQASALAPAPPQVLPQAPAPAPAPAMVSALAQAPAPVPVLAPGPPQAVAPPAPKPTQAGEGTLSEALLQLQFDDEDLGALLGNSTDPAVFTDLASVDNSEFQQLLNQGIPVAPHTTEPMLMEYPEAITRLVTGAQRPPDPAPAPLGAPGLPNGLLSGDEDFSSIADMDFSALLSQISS

NF-κB [3] = biological target: T1, NF-κB; assay: Gel shift assay of constitutive NF-κB activation in multiple myeloma cell lines; assay type: cell-based; design: endogenous in cells; host or cells: MM cell lines KMM1, RPMI8226, U266
Experimental: The ATL cell lines (MT-1 and TL-Om1) and the control cell lines (K562 and Jurkat+TNF), 2×10^6 cells each, were treated with 10 μg/ml DHM2EQ for 12 hours, and nuclear extract was prepared from each cell line. Likewise, nuclear extract was prepared also from the cell lines not treated with DHM2EQ. MT-1 and TL-Om1 are the cell lines transformed with HTLV-1; NF-κB is activated in these cell lines. K562 (myelocytic leukemia cell line) is a cell line in which constitutive NF-κB is not confirmed (a negative control), and Jurkat+TNF is a […] consensus oligomers (Promega) were end-labeled with [γ-^32P]-ATP and polynucleotide kinase (PNK) to prepare ^32P-labeled NF-κB probes.
The equivalent of 2 μg of nuclear extract protein was mixed with NF-κB probes (the equivalent of 10,000 cpm) in a volume of 20 μl and reacted at room temperature for 30 min. The solution after the reaction was subjected to 7.5% polyacrylamide gel electrophoresis. The gel was then dried and exposed to an X-ray film.
The MM cell lines, KMM1, RPMI8226, and U266 (2×10^6 cells each) were treated with 10 μg/ml of DHMEQ for 12 hours, and nuclear extract was prepared from each cell line. The gel shift assay was performed in the same method as in Example 4 and the inhibitory effect of DHMEQ on NF-κB was examined. […] The TNF-treated Jurkat (Jurkat+TNF) was used as the positive control.
Next, the MM cell lines, KMM1, RPMI8226, and U266 were treated with 10 μg/ml DHMEQ for 12 hours, and nuclear extract was prepared from each cell line. The gel shift assay was performed in the same method as in Example 4 (1) and the time-course inhibitory effect on NF-κB was examined.
Target sequence in this assay (Q04206 whole entry): as above
Target sequence in this assay (P19838 1-433 limits assumed): as the sequence (P19838 1-433 limits assumed) above

Compound: O=C(NC1=CC(=O)C2OC2C1O)c1ccccc1O (stereo not shown) [DHMEQ, 5,6-epoxy-4-hydroxy-3-salicyloylamino-2-cyclohexenone]
- mortality/survival after 24 hours (ICR mice; 5 mg/mouse (about 250 mg/kg)): dead on the day of administration
- mortality/survival after 24 hours (ICR mice; 0.156, 0.313, 0.625, 1.25, or 2.5 mg/mouse): survived
- LD50 at 24 h [1]: 188 mg/kg
- NF-κB induction by antitumor agent (NF-κB [2]): strongly suppressed
- signals by NF-κB (gel shift) (NF-κB [3]; KMM1, RPMI8226, U266, 10 μg/ml DHMEQ, 12 hours): lost
- persistence of inhibition of NF-κB activation (NF-κB [3]; MM cell lines, 10 μg/ml): sustained even after a lapse of 16 hours
- activation of NF-κB, time course (gel shift) (NF-κB [3]; MM cell lines, 10 μg/ml, 1 hour after treatment): almost inhibited

From patent US20060183794A1, “Drug composition containing nf-kb inhibitor” (priority 2002, published 2006)
